Measured values: patent US20090264457A1, “Combination of at least two 5HT6-Ligands” (priority 2007, published 2009)
“Also recorded” adds a separate entry of the source.

Experiments:
Lister Hooded rats = experiment: Novel object discrimination trial (two trial paradigm); format: in vivo, rat; conditions: for Dose at which the maximum effect was achieved in dose response trials: i.p., drug 20 minutes before familiarisation trial, COMPOUND 1 at 1.25, 2.5, 5 or 10 mg/kg, SB-271046 at 5 or 10 mg/kg
Experimental: Adult male Lister Hooded rats (Charles River, UK) weighing 200-350 g at the start of the experiment were housed in groups of four on a 12:12 h light:dark cycle (lights on at 07:00 h). Food and water were available ad libitum throughout the study, and the room temperature (21±2° C.) and relative humidity (45-65%) were kept constant. […] Each drug combination was administered to all rats in the group over a period of 4 weeks in a random order using a seven day behavioural test interval.
The two trial novel object discrimination paradigm utilised, was as described by Ennaceur and Delacour, (1988) with minor modification (King et al., 2004b; Woolley et al., 2003). The twelve open field test arenas used for object discrimination were clear perspex boxes (39×23.5 cm with 24.5 cm high walls) to which each rat was habituated for 60 minutes the day prior to test days. On the test day the first drug was administered −40 minutes and the second drug −20 minutes before the familiarisation trial. Therefore, 20 minutes after the injection each rat received 3 minutes acclimatisation to the perspex box in absence of objects which was then followed by the 3 minute familiarisation trial and a second 3 minute choice trial following a 4 hour inter-trial interval. During both trials, exploration of each object was defined as the time spent (s) sniffing (within 1 cm of it with active vibrissae), licking, chewing or touching the object with the nose.

5HT6 receptor = 5HT6 receptor (Homo sapiens, UniProt P50406); conditions: cited from earlier work
5HT6 receptor, sequence (P50406 whole entry): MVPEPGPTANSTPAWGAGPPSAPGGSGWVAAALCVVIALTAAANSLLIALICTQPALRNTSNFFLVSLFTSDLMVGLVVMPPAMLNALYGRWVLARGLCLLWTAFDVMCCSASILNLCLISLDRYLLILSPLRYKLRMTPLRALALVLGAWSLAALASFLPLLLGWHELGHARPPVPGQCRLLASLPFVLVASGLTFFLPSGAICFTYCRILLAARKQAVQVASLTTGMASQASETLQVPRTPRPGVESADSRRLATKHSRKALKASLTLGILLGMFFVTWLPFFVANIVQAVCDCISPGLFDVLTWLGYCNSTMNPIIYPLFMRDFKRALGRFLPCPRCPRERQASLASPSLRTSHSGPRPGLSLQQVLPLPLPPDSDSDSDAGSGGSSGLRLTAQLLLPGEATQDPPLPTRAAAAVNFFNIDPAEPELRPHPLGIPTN

| Structure (SMILES) | Effectiveness alone in novel object discrimination (Lister Hooded rats; COMPOUND 1 alone at 1 mg/kg i.p., 1 mg/kg) | Dose at which the maximum effect was achieved in dose response trials (Lister Hooded rats) | Functionality on the 5HT6 receptor (5HT6 receptor) | Effectiveness alone in novel object discrimination (Lister Hooded rats; SB-271046 alone at 5 mg/kg i.p., 5 mg/kg) |
| --- | --- | --- | --- | --- |
| CN(C)CCc1c[nH]c2ccc(NS(=O)(=O)c3c(Cl)nc4sccn34)cc12 [COMPOUND 1, 6-Chloro-imidazo[2,1-b]thiazole-5-sulfonic acid [3-(2-dimethylamino-ethyl)-1H-indol-5-yl]-amide] | either not or very low effective; also recorded: neither COMPOUND 1 at 1 mg/kg nor SB-271046 at 5 mg/kg being significantly effective | 5 mg/kg | agonist | – |
| COc1ccc(NS(=O)(=O)c2sc3ccc(Cl)cc3c2C)cc1N1CCNCC1 [SB-271046, 5-Chloro-N-(4-methoxy-3-(piperazin-1-yl)phenyl)-3-methyl-2-benzothiophene sulfonamide] | – | 10 mg/kg | antagonist | either not or very low effective; also recorded: neither COMPOUND 1 at 1 mg/kg nor SB-271046 at 5 mg/kg being significantly effective |
